Test results: ChEMBL document CHEMBL3885861, “Open TG-GATES”

Species: Rattus norvegicus
Experiment: Open TG-GATES - Regimen: Daily Repeat
Type: toxicity, organism-based, Sprague-Dawley
Parameters: regimen Daily Repeat, gender Male, age 6 weeks
Conditions: in vivo, po, route gavage; for Ht / Lym / MCHC / Mono / Neu / Plat / RBC / Ret / WBC / Bas / Eos / Fbg / Hb / PT / MCV: tissue Blood; for KIDNEY_L / KIDNEY_R / KIDNEY_TOTAL: tissue Kidney; for ALP / ALT / AST / BUN / CRE / Ca / DBIL / IP / K / Na / PL / RALB / TBIL / TC / TG / TP / gamma-GTP / LDH: tissue Plasma; for LIVER: tissue Liver
[1] = 120 mg/kg, 72 h, dose level Middle, time 3 day
[2] = 120 mg/kg, […], dose level Middle, time 7 day
[3] = 120 mg/kg, […], dose level Middle, time 14 day
[4] = 120 mg/kg, […], dose level Middle, time 28 day
[5] = 400 mg/kg, 72 h, dose level High, time 3 day
[6] = 400 mg/kg, […], dose level High, time 7 day
[7] = 400 mg/kg, […], dose level High, time 14 day
[8] = 400 mg/kg, […], dose level High, time 28 day

CCC(C)(C)C(=O)O[C@H]1C[C@@H](C)C=C2C=C[C@H](C)[C@H](CC[C@@H]3C[C@@H](O)CC(=O)O3)[C@H]21 [SIMVASTATIN]
Ht [1]: 41% | Lym [1]: 80.2% | MCHC [1]: 33.2% | Mono [1]: 8.4% | Neu [1]: 10.2% | Plat [1]: 119.9 x10_4/uL | RBC [1]: 644.2 x10_4/ul | Ret [1]: 5.5% | WBC [1]: 81 x10_2/uL | KIDNEY_L [1]: 1 g | KIDNEY_R [1]: 1 g | KIDNEY_TOTAL [1]: 2 g | ALP [1]: 885.4 IU/L | ALT [1]: 42 IU/L | AST [1]: 62.2 IU/L | BUN [1]: 16.4 mg/dL | CRE [1]: 0.6 mg/dL | Ca [1]: 10.8 mg/dL | DBIL [1]: 0.012 mg/dL | IP [1]: 7.3 mg/dL | K [1]: 4.4 meq/L | Na [1]: 139.6 meq/L | PL [1]: 131.2 mg/dL | RALB [1]: 3.9 g/dL | TBIL [1]: 0.3 mg/dL | TC [1]: 81.6 mg/dL | TG [1]: 48.2 mg/dL | TP [1]: 5.6 g/dL | gamma-GTP [1]: 1.4 IU/L | TERMINAL_BW [2]: 245.2 g | TERMINAL_BW [3]: 292.4 g | TERMINAL_BW [4]: 375.8 g | Bas [2]: 0% | Eos [2]: 1% | Fbg [2]: 222.8 mg/dL | Hb [2]: 13.3 g/dL | Ht [2]: 40% | Lym [2]: 83.8% | MCHC [2]: 33.1% | Mono [2]: 7.4% | Neu [2]: 8.4% | PT [2]: 11 s | Plat [2]: 123.4 x10_4/uL | RBC [2]: 630.6 x10_4/ul | Ret [2]: 3.3% | WBC [2]: 106.6 x10_2/uL | Bas [3]: 0% | Eos [3]: 0.8% | Fbg [3]: 223.6 mg/dL | Hb [3]: 14.2 g/dL | Ht [3]: 42.5% | Lym [3]: 80% | MCHC [3]: 33.3% | Mono [3]: 5.2% | Neu [3]: 14.4% | Plat [3]: 121.2 x10_4/uL | RBC [3]: 698 x10_4/ul | Ret [3]: 6% | Bas [4]: 0% | Eos [4]: 1% | Fbg [4]: 238.8 mg/dL | Hb [4]: 15 g/dL | Ht [4]: 45.4% | Lym [4]: 83.4% | MCHC [4]: 33.1% | MCV [4]: 58.3 fL | Mono [4]: 5.2% | PT [4]: 11.8 s | Plat [4]: 116.8 x10_4/uL | RBC [4]: 778.6 x10_4/ul | Ret [4]: 2.4% | WBC [4]: 114.5 x10_2/uL | KIDNEY_L [2]: 1.1 g | KIDNEY_R [2]: 1.1 g | KIDNEY_TOTAL [2]: 2.2 g | KIDNEY_L [3]: 1.2 g | KIDNEY_R [3]: 1.2 g | KIDNEY_TOTAL [3]: 2.4 g | KIDNEY_L [4]: 1.4 g | KIDNEY_R [4]: 1.4 g | KIDNEY_TOTAL [4]: 2.7 g | LIVER [2]: 13.1 g | LIVER [3]: 14.5 g | LIVER [4]: 17.7 g | ALP [2]: 848 IU/L | ALT [2]: 38.2 IU/L | AST [2]: 67.4 IU/L | BUN [2]: 21.4 mg/dL | CRE [2]: 0.6 mg/dL | DBIL [2]: 0.012 mg/dL | IP [2]: 7.1 mg/dL | K [2]: 4.8 meq/L | LDH [2]: 124.8 IU/L | Na [2]: 141.2 meq/L | PL [2]: 140.8 mg/dL | RALB [2]: 3.9 g/dL | TBIL [2]: 0.3 mg/dL | TC [2]: 74.6 mg/dL | TG [2]: 78.8 mg/dL | TP [2]: 5.8 g/dL | gamma-GTP [2]: 0.8 IU/L | ALP [3]: 763.4 IU/L | ALT [3]: 37.6 IU/L | AST [3]: 67 IU/L | BUN [3]: 20.6 mg/dL | CRE [3]: 0.6 mg/dL | Ca [3]: 11 mg/dL | DBIL [3]: 0.01 mg/dL | IP [3]: 7.2 mg/dL | K [3]: 4.3 meq/L | LDH [3]: 110.6 IU/L | Na [3]: 140.4 meq/L | PL [3]: 150.4 mg/dL | RALB [3]: 4 g/dL | TBIL [3]: 0.4 mg/dL | TC [3]: 76.2 mg/dL | TG [3]: 119.6 mg/dL | TP [3]: 5.9 g/dL | gamma-GTP [3]: 1.2 IU/L | ALP [4]: 716 IU/L | ALT [4]: 36.6 IU/L | AST [4]: 59.4 IU/L | BUN [4]: 19.8 mg/dL | CRE [4]: 0.7 mg/dL | Ca [4]: 10.9 mg/dL | DBIL [4]: 0.016 mg/dL | IP [4]: 6.4 mg/dL | K [4]: 4.2 meq/L | LDH [4]: 107.8 IU/L | Na [4]: 142.6 meq/L | PL [4]: 139.6 mg/dL | RALB [4]: 4 g/dL | TBIL [4]: 0.3 mg/dL | TC [4]: 71.4 mg/dL | TG [4]: 128.2 mg/dL | TP [4]: 6.2 g/dL | gamma-GTP [4]: 2.2 IU/L | TERMINAL_BW [5]: 181.9 g | Bas [5]: 0% | Eos [5]: 1% | Fbg [5]: 202.2 mg/dL | Hb [5]: 15.1 g/dL | Ht [5]: 45.5% | Lym [5]: 72.4% | MCHC [5]: 33.3% | Mono [5]: 5.8% | Neu [5]: 20.6% | PT [5]: 15.6 s | Plat [5]: 126.8 x10_4/uL | RBC [5]: 699.4 x10_4/ul | Ret [5]: 2.6% | WBC [5]: 96.5 x10_2/uL | KIDNEY_L [5]: 0.9 g | KIDNEY_R [5]: 0.9 g | KIDNEY_TOTAL [5]: 1.8 g | LIVER [5]: 9.1 g | ALP [5]: 613.8 IU/L | ALT [5]: 173.4 IU/L | AST [5]: 134 IU/L | BUN [5]: 15 mg/dL | CRE [5]: 0.5 mg/dL | Ca [5]: 10 mg/dL | DBIL [5]: 0.012 mg/dL | IP [5]: 6.9 mg/dL | K [5]: 5 meq/L | LDH [5]: 155.8 IU/L | Na [5]: 137.2 meq/L | PL [5]: 82.2 mg/dL | RALB [5]: 4 g/dL | TBIL [5]: 0.4 mg/dL | TC [5]: 51.4 mg/dL | TG [5]: 17.6 mg/dL | TP [5]: 5.3 g/dL | gamma-GTP [5]: 1.6 IU/L | TERMINAL_BW [6]: 208 g | TERMINAL_BW [7]: 268.6 g | TERMINAL_BW [8]: 365.2 g | Bas [6]: 0% | Eos [6]: 1% | Fbg [6]: 212.2 mg/dL | Hb [6]: 13.7 g/dL | Ht [6]: 41.7% | Lym [6]: 78% | MCHC [6]: 32.8% | Mono [6]: 7.5% | Neu [6]: 13.5% | PT [6]: 12.8 s | Plat [6]: 138.7 x10_4/uL | RBC [6]: 658.2 x10_4/ul | Ret [6]: 3.4% | WBC [6]: 98.8 x10_2/uL | Bas [7]: 0% | Eos [7]: 1% | Fbg [7]: 255.2 mg/dL | Hb [7]: 13.5 g/dL | Ht [7]: 40.7% | Lym [7]: 72.8% | MCHC [7]: 33.1% | Mono [7]: 9.5% | Neu [7]: 17.2% | PT [7]: 12.1 s | Plat [7]: 148 x10_4/uL | RBC [7]: 673.5 x10_4/ul | Ret [7]: 8.1% | WBC [7]: 114.1 x10_2/uL | Bas [8]: 0% | Eos [8]: 1% | Fbg [8]: 234.2 mg/dL | Hb [8]: 14.6 g/dL | Ht [8]: 44% | Lym [8]: 80.2% | MCHC [8]: 33.1% | MCV [8]: 58.5 fL | Mono [8]: 5.6% | Neu [8]: 13.8% | PT [8]: 13 s | Plat [8]: 130.1 x10_4/uL | RBC [8]: 753.2 x10_4/ul | Ret [8]: 3% | WBC [8]: 117.8 x10_2/uL | KIDNEY_L [6]: 1 g | KIDNEY_R [6]: 1 g | KIDNEY_TOTAL [6]: 1.9 g | KIDNEY_L [7]: 1.2 g | KIDNEY_R [7]: 1.2 g | KIDNEY_TOTAL [7]: 2.4 g | KIDNEY_L [8]: 1.3 g | KIDNEY_R [8]: 1.4 g | KIDNEY_TOTAL [8]: 2.7 g | LIVER [6]: 12.1 g | LIVER [7]: 16 g | LIVER [8]: 20.6 g | ALP [6]: 693.8 IU/L | ALT [6]: 96.2 IU/L | AST [6]: 100.2 IU/L | BUN [6]: 21 mg/dL | CRE [6]: 0.6 mg/dL | Ca [6]: 11.3 mg/dL | DBIL [6]: 0.025 mg/dL | IP [6]: 6.2 mg/dL | K [6]: 4.7 meq/L | LDH [6]: 136 IU/L | Na [6]: 141.2 meq/L | PL [6]: 116.8 mg/dL | RALB [6]: 4.1 g/dL | TBIL [6]: 0.3 mg/dL | TC [6]: 67.5 mg/dL | TG [6]: 36.8 mg/dL | TP [6]: 5.9 g/dL | gamma-GTP [6]: 1.2 IU/L | ALP [7]: 717.5 IU/L | ALT [7]: 100.5 IU/L | AST [7]: 275.8 IU/L | BUN [7]: 19.2 mg/dL | CRE [7]: 0.6 mg/dL | Ca [7]: 10.8 mg/dL | DBIL [7]: 0.0075 mg/dL | IP [7]: 6.7 mg/dL | K [7]: 4.2 meq/L | LDH [7]: 121.2 IU/L | Na [7]: 140 meq/L | PL [7]: 115 mg/dL | RALB [7]: 3.7 g/dL | TBIL [7]: 0.3 mg/dL | TC [7]: 66.5 mg/dL | TG [7]: 60.5 mg/dL | TP [7]: 5.5 g/dL | gamma-GTP [7]: 2.2 IU/L | ALP [8]: 691.8 IU/L | ALT [8]: 55 IU/L | AST [8]: 71.6 IU/L | BUN [8]: 23.6 mg/dL | CRE [8]: 0.6 mg/dL | Ca [8]: 10.9 mg/dL | DBIL [8]: 0.018 mg/dL | IP [8]: 5.6 mg/dL | K [8]: 4.4 meq/L | LDH [8]: 132 IU/L | Na [8]: 142.6 meq/L | PL [8]: 116.2 mg/dL | RALB [8]: 4.1 g/dL | TBIL [8]: 0.3 mg/dL | TC [8]: 57.6 mg/dL | TG [8]: 85.4 mg/dL | TP [8]: 6.1 g/dL | gamma-GTP [8]: 1.2 IU/L
